Laboratory results from patent publication US6867206B1, “6-carboxyphenyldihydropyridazinone derivatives and use thereof” (Bayer Aktiengesellschaft, priority 1999, dated 2005).

| melting point | Compound |
| --- | --- |
| 217 to 218 °C | CCCCNC(=O)c1ccc(C2=NNC(=O)CC2)cc1 [Example 4] |
| 208 to 210 °C | O=C1CCC(c2ccc(C(=O)NCc3ccco3)cc2)=NN1 [Example 5] |
| 203 to 205 °C | COC(=O)c1ccc(C2=NNC(=O)CC2)cc1 [Example 6] |
| 208 to 209 °C | O=C1CCC(c2ccc(C(=O)NCc3ccccc3)cc2)=NN1 [Example 7] |
| > 250 °C | O=C1CCC(c2ccc(C(=O)Nc3c(Cl)cccc3Cl)cc2)=NN1 [Example 8] |
| 155 to 156 °C | CC(C)OC(=O)c1ccc(C2=NNC(=O)CC2)cc1 [Example 9] |
| 223 to 226 °C | O=C1CCC(c2ccc(C(=O)NCCc3ccccc3)cc2)=NN1 [Example 10] |
| 248 to 250 °C | O=C1CCC(c2ccc(C(=O)NC3CC3)cc2)=NN1 [Example 11] |
| 157 to 159 °C | CCOC(=O)c1ccc(C2=NNC(=O)CC2)cc1 [Example 12] |
| > 250 °C | O=C1CCC(c2ccc(C(=O)Nc3ccccc3)cc2)=NN1 [Example 13] |
| 233 to 234 °C | CNC(=O)c1ccc(C2=NNC(=O)CC2)cc1 [Example 14] |
| 228 to 230 °C | CCNC(=O)c1ccc(C2=NNC(=O)CC2)cc1 [Example 15] |
| 258 to 260 °C | O=C1CCC(c2ccc(C(=O)NCc3cccc4ccccc34)cc2)=NN1 [Example 16] |
| 228 to 230 °C | O=C1CCC(c2ccc(C(=O)NCc3ccccn3)cc2)=NN1 [Example 17] |
| 209 to 210 °C | O=C1CCC(c2ccc(C(=O)Nc3ccccc3Cl)cc2)=NN1 [Example 18] |
| 182 to 184 °C | O=C1CCC(c2ccc(C(=O)N3CCCCC3)cc2)=NN1 [Example 19] |
| 220 to 223 °C | O=C1CCC(c2ccc(C(=O)NCc3cccnc3)cc2)=NN1 [Example 20] |
| > 250 °C | Cc1ccc(NC(=O)c2ccc(C3=NNC(=O)CC3)cc2)cc1 [Example 21] |
| > 250 °C | O=C1CCC(c2ccc(C(=O)Nc3cccc(Cl)c3)cc2)=NN1 [Example 22] |
| 242 to 243 °C | CC(NC(=O)c1ccc(C2=NNC(=O)CC2)cc1)c1ccccc1 (stereo not shown) [Example 23] |
| > 260 °C | COC(=O)c1ccc(NC(=O)c2ccc(C3=NNC(=O)CC3)cc2)o1 [Example 24] |
| 215 to 216 °C | O=C1CCC(c2ccc(C(=O)N3CCCc4ccccc43)cc2)=NN1 [Example 25] |
| 249 to 250 °C | O=C1CCC(c2ccc(C(=O)NC3CCCCC3)cc2)=NN1 [Example 27] |
| 229 to 230 °C | O=C1CCC(c2ccc(C(=O)Nc3cccc(C(F)(F)F)c3)cc2)=NN1 [Example 28] |
| 202 to 203 °C | O=C1CCC(c2ccc(C(=O)N3CCOCC3)cc2)=NN1 [Example 29] |
| 208 to 209 °C | O=C1CCC(c2ccc(C(=O)NCc3ccc(Cl)c(Cl)c3)cc2)=NN1 [Example 30] |
| 283 to 284 °C | CCCOC(=O)c1ccc(C2=NNC(=O)CC2)cc1 [Example 31] |
| 259 to 260 °C | CC(C)COC(=O)c1ccc(C2=NNC(=O)CC2)cc1 [Example 32] |

| melting point | Compound |
| --- | --- |
| 120 to 122 °C | CCC(C)OC(=O)c1ccc(C2=NNC(=O)CC2)cc1 (stereo not shown) [Example 33] |
| 158 to 159 °C | O=C1CCC(c2ccc(C(=O)OCC3CC3)cc2)=NN1 [Example 34] |
| 167 to 169 °C | O=C1CCC(c2ccc(C(=O)OC3CCCC3)cc2)=NN1 [Example 35] |
| 131 to 133 °C | C=CCOC(=O)c1ccc(C2=NNC(=O)CC2)cc1 [Example 36] |
| 90 to 91 °C | CN(CCOC(=O)c1ccc(C2=NNC(=O)CC2)cc1)Cc1ccccc1 [Example 37] |
| 104 to 105 °C | CC(OC(=O)c1ccc(C2=NNC(=O)CC2)cc1)C1CC1 (stereo not shown) [Example 38] |
| 146 to 148 °C | O=C1CCC(c2ccc(C(=O)OCCc3ccccc3)cc2)=NN1 [Example 39] |
| 155 to 156 °C | O=C1CCC(c2ccc(C(=O)OCC3CCC3)cc2)=NN1 [Example 40] |
| 156 to 157 °C | O=C1CCC(c2ccc(C(=O)OCc3ccccc3)cc2)=NN1 [Example 41] |
| 208 to 209 °C | CN(C(=O)c1ccc(C2=NNC(=O)CC2)cc1)c1ccccc1 [Example 42] |
| 189 to 190 °C | O=C1CCC(c2ccc(C(=O)NCCc3ccccc3F)cc2)=NN1 [Example 43] |
| 215 to 216 °C | O=C1CCC(c2ccc(C(=O)NCCc3cccs3)cc2)=NN1 [Example 44] |
| 278 to 279 °C | O=C1CCC(c2ccc(C(=O)Nc3c(F)cccc3F)cc2)=NN1 [Example 45] |
| > 250 °C | NC(=O)c1ccsc1NC(=O)c1ccc(C2=NNC(=O)CC2)cc1 [Example 47] |
| 186 to 187 °C | O=C1CCC(c2ccc(C(=O)NCc3ccccc3F)cc2)=NN1 [Example 49] |
| > 250 °C | NC(=O)c1ccccc1NC(=O)c1ccc(C2=NNC(=O)CC2)cc1 [Example 51] |
| 267 to 268 °C | CC1CC(=O)NN=C1c1ccc(C(=O)Nc2cccnc2)cc1 (stereo not shown) [Example 53] |
| 266 to 267 °C | CC1CC(=O)NN=C1c1ccc(C(=O)Nc2cccc3ccccc23)cc1 (stereo not shown) [Example 54] |
| 271 to 272 °C | CC1CC(=O)NN=C1c1ccc(C(=O)Nc2ccc3ccccc3c2)cc1 (stereo not shown) [Example 55] |
| > 260 °C | CC1CC(=O)NN=C1c1ccc(C(=O)N2CCCc3ccccc32)cc1 (stereo not shown) [Example 56] |
| 216 to 217 °C | CC1CC(=O)NN=C1c1ccc(C(=O)NC2CC2)cc1 (stereo not shown) [Example 57] |
| 152 to 153 °C | CC(C)CCNC(=O)c1ccc(C2=NNC(=O)CC2C)cc1 (stereo not shown) [Example 58] |
| 186 to 187 °C | CC1CC(=O)NN=C1c1ccc(C(=O)NCC(c2ccccc2)c2ccccc2)cc1 (stereo not shown) [Example 59] |
| 245 to 246 °C | COc1ccc(CCNC(=O)c2ccc(C3=NNC(=O)CC3C)cc2)cc1 (stereo not shown) [Example 60] |
| 164 to 165 °C | COc1cccc(CCNC(=O)c2ccc(C3=NNC(=O)CC3C)cc2)c1 (stereo not shown) [Example 61] |
| 166 to 167 °C | CC(C)CNC(=O)c1ccc(C2=NNC(=O)CC2C)cc1 (stereo not shown) [Example 62] |
| 146 to 147 °C | COc1ccc(CCNC(=O)c2ccc(C3=NNC(=O)CC3C)cc2)cc1OC (stereo not shown) [Example 63] |
